Where a SMILES comes first, the peptide text is derived from it. Bridges are numbered along the chain shown (N, C = ends). [ ]: non-standard residue; d: D form. The star is where a group is joined. hPhe(3-Cl-4-CF3) = N[C@@H](CCc1ccc(C(F)(F)F)c(Cl)c1)C(=O)O; NPrPhe(4-CF3) = CCCN[C@@H](Cc1ccc(C(F)(F)F)cc1)C(=O)O; NMeGly(cPent) = CN[C@H](C(=O)O)C1CCCC1; Pro(4,4-F2) = O=C(O)[C@@H]1CC(F)(F)CN1; Hyp = O=C(O)[C@@H]1C[C@@H](O)CN1; NMeL = CN[C@@H](CC(C)C)C(=O)O; Morpholide = C1CN(*)CCO1; NMeA = CN[C@@H](C)C(=O)O; Ac5c = NC1(C(=O)O)CCCC1; Aze = O=C(O)[C@@H]1CCN1; Ac4c = NC1(C(=O)O)CCC1; NEtG = CCNCC(=O)O; Sar = CNCC(=O)O
How the values were obtained:
[1] = molecular target: GDP-bound NRAS wild-type protein (Homo sapiens, UniProt P01111); experiment: Binding to NRAS by surface plasmon resonance (SPR), Single Cycle Kinetics; details: KD ratio NRAS/KRAS, SPR
Sequence of GDP-bound NRAS wild-type protein (P01111 whole entry): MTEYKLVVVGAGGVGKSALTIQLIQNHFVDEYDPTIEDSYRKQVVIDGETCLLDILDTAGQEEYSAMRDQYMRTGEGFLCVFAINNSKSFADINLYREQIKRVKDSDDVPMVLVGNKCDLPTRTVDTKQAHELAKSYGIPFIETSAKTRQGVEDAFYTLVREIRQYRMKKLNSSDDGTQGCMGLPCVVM

[2] = molecular target: GDP-bound HRAS wild-type protein (Homo sapiens, UniProt P01112); experiment: Binding to HRAS by surface plasmon resonance (SPR), Single Cycle Kinetics; details: KD ratio HRAS/KRAS, SPR
Sequence of GDP-bound HRAS wild-type protein (P01112 whole entry): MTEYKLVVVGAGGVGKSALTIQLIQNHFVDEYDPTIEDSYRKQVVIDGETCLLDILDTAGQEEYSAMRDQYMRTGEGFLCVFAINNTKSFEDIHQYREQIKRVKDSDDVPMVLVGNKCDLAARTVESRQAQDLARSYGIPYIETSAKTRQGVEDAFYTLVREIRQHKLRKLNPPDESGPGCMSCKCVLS

SMILES | NRAS/KRAS (ratio of KD for GDP-bound NRAS wild-type to KD for KRAS) [1] | HRAS/KRAS (ratio of KD for GDP-bound HRAS wild-type to KD for KRAS) [2]
CCCN1C(=O)CN(C)C(=O)CN(CC)C(=O)[C@H]([C@@H](C)CC)NC(=O)[C@H](CC(C)C)N(C)C(=O)C[C@@H](C(=O)N2CCOCC2)NC(=O)[C@H](C2CCCC2)N(C)C(=O)C2(CCCC2)NC(=O)[C@@H]2CC(F)(F)CN2C(=O)[C@H](CCc2ccc(C(F)(F)F)c(Cl)c2)NC(=O)CN(C)C(=O)[C@@H]1Cc1ccc(C(F)(F)F)cc1 [PP0333] ([NMeL]I[NEtG][Sar][NPrPhe(4-CF3)][Sar][hPhe(3-Cl-4-CF3)][Pro(4,4-F2)][Ac5c][NMeGly(cPent)]D-Morpholide; lactam N-11) | B (a compound having 3 or more and less than 10 is denoted as B) | C (A compound having a KD ratio of 0.1 or more and less than 3 is denoted as C)
CCCN1C(=O)CN(C)C(=O)CN(CC)C(=O)[C@H]([C@@H](C)CC)NC(=O)[C@H](CC(C)C)N(C)C(=O)C[C@@H](C(=O)N2CCOCC2)NC(=O)[C@H](C2CCCC2)N(C)C(=O)C2(CCC2)NC(=O)[C@@H]2CC(F)(F)CN2C(=O)[C@H](CCc2ccc(C(F)(F)F)c(Cl)c2)NC(=O)CN(C)C(=O)[C@@H]1Cc1ccc(C(F)(F)F)cc1 [PP0334] ([NMeL]I[NEtG][Sar][NPrPhe(4-CF3)][Sar][hPhe(3-Cl-4-CF3)][Pro(4,4-F2)][Ac4c][NMeGly(cPent)]D-Morpholide; lactam N-11) | B (a compound having 3 or more and less than 10 is denoted as B) | C (A compound having a KD ratio of 0.1 or more and less than 3 is denoted as C)
CCCN1C(=O)CN(C)C(=O)CN(CC)C(=O)[C@H]([C@@H](C)CC)NC(=O)[C@H](CC(C)C)N(C)C(=O)C[C@@H](C(=O)N2CCOCC2)NC(=O)[C@H](C2CCCC2)N(C)C(=O)C2(CCCC2)NC(=O)[C@@H]2C[C@@H](OCC)CN2C(=O)[C@H](CCc2ccc(C(F)(F)F)c(Cl)c2)NC(=O)CN(C)C(=O)[C@@H]1Cc1ccc(C(F)(F)F)cc1 [PP0335] ([NMeL]I[NEtG][Sar][NPrPhe(4-CF3)][Sar][hPhe(3-Cl-4-CF3)][Hyp](Et)[Ac5c][NMeGly(cPent)]D-Morpholide; lactam N-11) | B (a compound having 3 or more and less than 10 is denoted as B) | C (A compound having a KD ratio of 0.1 or more and less than 3 is denoted as C)
CCCN1C(=O)CN(C)C(=O)CN(CC)C(=O)[C@H]([C@@H](C)CC)NC(=O)[C@H](CC(C)C)N(C)C(=O)C[C@@H](C(=O)N2CCOCC2)NC(=O)[C@H](C2CCCC2)N(C)C(=O)C2(CCC2)NC(=O)[C@@H]2C[C@@H](OCC)CN2C(=O)[C@H](CCc2ccc(C(F)(F)F)c(Cl)c2)NC(=O)CN(C)C(=O)[C@@H]1Cc1ccc(C(F)(F)F)cc1 [PP0336] ([NMeL]I[NEtG][Sar][NPrPhe(4-CF3)][Sar][hPhe(3-Cl-4-CF3)][Hyp](Et)[Ac4c][NMeGly(cPent)]D-Morpholide; lactam N-11) | B (a compound having 3 or more and less than 10 is denoted as B) | B (a compound having 3 or more and less than 10 is denoted as B)
CCCN1C(=O)CN(C)C(=O)[C@@H]2CCN2C(=O)[C@H]([C@@H](C)CC)NC(=O)[C@H](CC(C)C)N(C)C(=O)C[C@@H](C(=O)N2CCOCC2)NC(=O)[C@H](C2CCCC2)N(C)C(=O)C2(CCCC2)NC(=O)[C@@H]2CCCN2C(=O)[C@H](CCc2ccc(C(F)(F)F)c(Cl)c2)NC(=O)CN(C)C(=O)[C@@H]1Cc1ccc(C(F)(F)F)cc1 [PP0337] ([NMeL]I[Aze][Sar][NPrPhe(4-CF3)][Sar][hPhe(3-Cl-4-CF3)]P[Ac5c][NMeGly(cPent)]D-Morpholide; lactam N-11) | B (a compound having 3 or more and less than 10 is denoted as B) | B (a compound having 3 or more and less than 10 is denoted as B)
CCCN1C(=O)CN(C)C(=O)[C@@H]2CCN2C(=O)[C@H]([C@@H](C)CC)NC(=O)[C@H](CC(C)C)N(C)C(=O)C[C@@H](C(=O)N2CCOCC2)NC(=O)[C@H](C2CCCC2)N(C)C(=O)C2(CCC2)NC(=O)[C@@H]2CCCN2C(=O)[C@H](CCc2ccc(C(F)(F)F)c(Cl)c2)NC(=O)CN(C)C(=O)[C@@H]1Cc1ccc(C(F)(F)F)cc1 [PP0338] ([NMeL]I[Aze][Sar][NPrPhe(4-CF3)][Sar][hPhe(3-Cl-4-CF3)]P[Ac4c][NMeGly(cPent)]D-Morpholide; lactam N-11) | B (a compound having 3 or more and less than 10 is denoted as B) | B (a compound having 3 or more and less than 10 is denoted as B)
CCCN1C(=O)CN(C)C(=O)[C@@H]2CCN2C(=O)[C@H]([C@@H](C)CC)NC(=O)[C@H](CC(C)C)N(C)C(=O)C[C@@H](C(=O)N2CCOCC2)NC(=O)[C@H](C2CCCC2)N(C)C(=O)C2(CCCC2)NC(=O)[C@@H]2CC(F)(F)CN2C(=O)[C@H](CCc2ccc(C(F)(F)F)c(Cl)c2)NC(=O)CN(C)C(=O)[C@@H]1Cc1ccc(C(F)(F)F)cc1 [PP0339] ([NMeL]I[Aze][Sar][NPrPhe(4-CF3)][Sar][hPhe(3-Cl-4-CF3)][Pro(4,4-F2)][Ac5c][NMeGly(cPent)]D-Morpholide; lactam N-11) | B (a compound having 3 or more and less than 10 is denoted as B) | B (a compound having 3 or more and less than 10 is denoted as B)
CCCN1C(=O)CN(C)C(=O)[C@@H]2CCN2C(=O)[C@H]([C@@H](C)CC)NC(=O)[C@H](CC(C)C)N(C)C(=O)C[C@@H](C(=O)N2CCOCC2)NC(=O)[C@H](C2CCCC2)N(C)C(=O)C2(CCC2)NC(=O)[C@@H]2CC(F)(F)CN2C(=O)[C@H](CCc2ccc(C(F)(F)F)c(Cl)c2)NC(=O)CN(C)C(=O)[C@@H]1Cc1ccc(C(F)(F)F)cc1 [PP0340] ([NMeL]I[Aze][Sar][NPrPhe(4-CF3)][Sar][hPhe(3-Cl-4-CF3)][Pro(4,4-F2)][Ac4c][NMeGly(cPent)]D-Morpholide; lactam N-11) | B (a compound having 3 or more and less than 10 is denoted as B) | B (a compound having 3 or more and less than 10 is denoted as B)
CCCN1C(=O)CN(C)C(=O)[C@@H]2CCN2C(=O)[C@H]([C@@H](C)CC)NC(=O)[C@H](CC(C)C)N(C)C(=O)C[C@@H](C(=O)N2CCOCC2)NC(=O)[C@H](C2CCCC2)N(C)C(=O)C2(CCCC2)NC(=O)[C@@H]2C[C@@H](OCC)CN2C(=O)[C@H](CCc2ccc(C(F)(F)F)c(Cl)c2)NC(=O)CN(C)C(=O)[C@@H]1Cc1ccc(C(F)(F)F)cc1 [PP0341] ([NMeL]I[Aze][Sar][NPrPhe(4-CF3)][Sar][hPhe(3-Cl-4-CF3)][Hyp](Et)[Ac5c][NMeGly(cPent)]D-Morpholide; lactam N-11) | B (a compound having 3 or more and less than 10 is denoted as B) | B (a compound having 3 or more and less than 10 is denoted as B)
CCCN1C(=O)CN(C)C(=O)[C@@H]2CCN2C(=O)[C@H]([C@@H](C)CC)NC(=O)[C@H](CC(C)C)N(C)C(=O)C[C@@H](C(=O)N2CCOCC2)NC(=O)[C@H](C2CCCC2)N(C)C(=O)C2(CCC2)NC(=O)[C@@H]2C[C@@H](OCC)CN2C(=O)[C@H](CCc2ccc(C(F)(F)F)c(Cl)c2)NC(=O)CN(C)C(=O)[C@@H]1Cc1ccc(C(F)(F)F)cc1 [PP0342] ([NMeL]I[Aze][Sar][NPrPhe(4-CF3)][Sar][hPhe(3-Cl-4-CF3)][Hyp](Et)[Ac4c][NMeGly(cPent)]D-Morpholide; lactam N-11) | B (a compound having 3 or more and less than 10 is denoted as B) | B (a compound having 3 or more and less than 10 is denoted as B)
CCCN1C(=O)[C@@H]2CCN2C(=O)[C@H](C)N(C)C(=O)[C@H]([C@@H](C)CC)NC(=O)[C@H](CC(C)C)N(C)C(=O)C[C@@H](C(=O)N2CCOCC2)NC(=O)[C@H](C2CCCC2)N(C)C(=O)C2(CCCC2)NC(=O)[C@@H]2CCCN2C(=O)[C@H](CCc2ccc(C(F)(F)F)c(Cl)c2)NC(=O)CN(C)C(=O)[C@@H]1Cc1ccc(C(F)(F)F)cc1 [PP0343] ([NMeL]I[NMeA][Aze][NPrPhe(4-CF3)][Sar][hPhe(3-Cl-4-CF3)]P[Ac5c][NMeGly(cPent)]D-Morpholide; lactam N-11) | C (A compound having a KD ratio of 0.1 or more and less than 3 is denoted as C) | B (a compound having 3 or more and less than 10 is denoted as B)
CCCN1C(=O)[C@@H]2CCN2C(=O)[C@H](C)N(C)C(=O)[C@H]([C@@H](C)CC)NC(=O)[C@H](CC(C)C)N(C)C(=O)C[C@@H](C(=O)N2CCOCC2)NC(=O)[C@H](C2CCCC2)N(C)C(=O)C2(CCC2)NC(=O)[C@@H]2CCCN2C(=O)[C@H](CCc2ccc(C(F)(F)F)c(Cl)c2)NC(=O)CN(C)C(=O)[C@@H]1Cc1ccc(C(F)(F)F)cc1 [PP0344] ([NMeL]I[NMeA][Aze][NPrPhe(4-CF3)][Sar][hPhe(3-Cl-4-CF3)]P[Ac4c][NMeGly(cPent)]D-Morpholide; lactam N-11) | C (A compound having a KD ratio of 0.1 or more and less than 3 is denoted as C) | B (a compound having 3 or more and less than 10 is denoted as B)
CCCN1C(=O)[C@@H]2CCN2C(=O)[C@H](C)N(C)C(=O)[C@H]([C@@H](C)CC)NC(=O)[C@H](CC(C)C)N(C)C(=O)C[C@@H](C(=O)N2CCOCC2)NC(=O)[C@H](C2CCCC2)N(C)C(=O)C2(CCCC2)NC(=O)[C@@H]2CC(F)(F)CN2C(=O)[C@H](CCc2ccc(C(F)(F)F)c(Cl)c2)NC(=O)CN(C)C(=O)[C@@H]1Cc1ccc(C(F)(F)F)cc1 [PP0345] ([NMeL]I[NMeA][Aze][NPrPhe(4-CF3)][Sar][hPhe(3-Cl-4-CF3)][Pro(4,4-F2)][Ac5c][NMeGly(cPent)]D-Morpholide; lactam N-11) | C (A compound having a KD ratio of 0.1 or more and less than 3 is denoted as C) | B (a compound having 3 or more and less than 10 is denoted as B)
